Reference: patent US7267953B2, “Method for identification of modulators of pre-adipocyte differentiation” (AstraZeneca AB, priority 2001, dated 2007)

Assays:
[1] = tested on: NIH/3T3 mouse fibroblasts; experiment: Adipocyte differentiation of retrovirus infected NIH/3T3 fibroblasts, Oil Red O staining; type: cell-based; settings: Oil Red O after 10 days
Text: A classical way of studying the adipocyte differentiating potential of a gene is to overexpress it in either uncommitted NIH/3T3 fibroblasts or in 3T3-L1 preadipocytes using retroviral transfer. The adipocyte differentiating potential can then be assayed by microscopic examination and by staining with lipophilic dyes such as Oil Red O. O/E-1 was thus expressed in mouse NIH/3T3 fibroblasts, 3T3-L1 preadipocytes and mouse embryonic fibroblasts to investigate its adipocyte differentiating potential. cDNAs encoding mouse O/E-1, human O/E-1 and mouse PPARγ2 were cloned in the pBabepuro retrovirus vector. These retrovirus vectors as well as the empty vector were transiently transfected into Phoenix high efficiency packaging cells. Retroviruses containing supernatants were used to infect NIH/3T3 mouse fibroblasts. After puromycin (2 μg/ml) selection for two days, cells were allowed to grow to confluence after which adipogenic inducers were added (DIM, see above), after 10 days cells were stained with the lipophilic dye Oil Red O. As expected PPARγ induced some differentiation of NIH/3T3 mouse fibroblasts into lipid-containing cells that resembled cultured adipocytes in the presence of adipogenic inducers (FIG. 3). […] The ability of human O/E-1 to induce adipocyte differentiation of NIH/3T3 was also tested and found to be similar as that of mouse O/E-1 (Data not shown).

[2] = tested on: mouse embryonic fibroblasts (MEF); experiment: Adipocyte differentiation of retrovirus infected mouse embryonic fibroblasts (MEF), Oil Red O staining; type: cell-based; settings: Oil Red O at day 13 post-induction
Text: The fibroblastic 3T3-L1 preadipocyte cells have the capability to differentiate to adipocytes when given the proper hormonal stimulation, usually a combination of dexamethasone, insulin and isobutylmethylxanthine, as opposed to NIH/3T3 where overexpression of adipocyte differentiating factors is necessary to get adipocyte development. Untransformed mouse embryonic fibroblasts (MEF) can also be forced to adipocyte differentiation using the same adipogenic factors; the efficiency is however much lower than with 3T3-L1. […] Stable clones were selected 2-3 days using puromycin (2 μg/ml) and surviving cells were grown to confluence. 3T3-L1 cells differentiate to adipocytes at high rate when all adipogenic inducers are present and this could make it difficult discriminate the effect of an additional adipogenic signal. The cells were therefore induced with dexamethasone (1 μM) alone for two days or in combination with darglitazone (0.5 μM) throughout the experiment to get a low differentiation rate. […] At day 13 post-induction adipate differentiation was measured by Oil Red O staining. […]

[3] = tested on: 3T3-L1 preadipocytes; experiment: Adipocyte differentiation of retrovirus infected 3T3-L1 preadipocytes, Oil Red O staining; type: cell-based, mouse; settings: vector or O/E-1 infected 3T3-L1; 0.5 μM in combination with dexamethasone (1 μM); stained at day 3, 4 and 7
Text: The fibroblastic 3T3-L1 preadipocyte cells have the capability to differentiate to adipocytes when given the proper hormonal stimulation, usually a combination of dexamethasone, insulin and isobutylmethylxanthine, as opposed to NIH/3T3 where overexpression of adipocyte differentiating factors is necessary to get adipocyte development. Untransformed mouse embryonic fibroblasts (MEF) can also be forced to adipocyte differentiation using the same adipogenic factors; the efficiency is however much lower than with 3T3-L1. […] Stable clones were selected 2-3 days using puromycin (2 μg/ml) and surviving cells were grown to confluence. 3T3-L1 cells differentiate to adipocytes at high rate when all adipogenic inducers are present and this could make it difficult discriminate the effect of an additional adipogenic signal. The cells were therefore induced with dexamethasone (1 μM) alone for two days or in combination with darglitazone (0.5 μM) throughout the experiment to get a low differentiation rate. MEF on the other hand develop into adipocytes quite inefficiently and were thus induced with the more powerful adipogenic combination of dexamethasone (1 μM), insulin (5 μg/ml) isobutylmethylxanthine (0.115 mg/ml) and darglitazone (0.5 μM) for two days, insulin and darglitazone for two days and darglitazone alone all through the experiment. […]

Cc1oc(-c2ccccc2)nc1CCC(=O)c1ccc(CC2SC(=O)NC2=O)cc1 (stereo not drawn) [darglitazone]
differentiation into lipid-containing adipocyte-like cells ([1]; PPARγ2 infected NIH/3T3, 0.5 μM present throughout with adipogenic inducers (DIM)): dramatic increase | development to adipocytes ([1]; mouse O/E-1 infected NIH/3T3, adipogenic inducers (DIM), 0.5 μM): greatly enhanced | differentiation into adipocytes ([1]; vector infected NIH/3T3, adipogenic inducers (DIM), 0.5 μM): No differentiation was observed | adipocyte differentiation ([2]; human O/E-1 infected MEF): even further enhanced differentiation | number of cells that developed into adipocytes ([2]; vector infected MEF, compared with vehicle): increased the number of cells that developed into adipocytes | overall rate of adipocyte differentiation [3]: overall rate of differentiation was enhanced
